Laboratory results taken from US6096930A, “Herbicidal cyclohexane-1,3-dione derivatives and their preparation process” (Korea Research Institute of Chemical Technology, priority 1994, dated 2000).
Like-named read-outs stand apart in the source and are kept apart here.

Columns and labels:
Assay in all cases: Herbicidal activity for paddy test
Format in all cases: in vivo
SAGPY = conditions: for pest or weed control at 2 g/ha: 0.002 kg/ha; for pest or weed control at 8 g/ha: 0.008 kg/ha; for pest or weed control at 31 g/ha: 0.031 kg/ha; for pest or weed control at 125 g/ha: 0.125 kg/ha; for pest or weed control at 500 g/ha: 0.500 kg/ha
In short: (§1)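 For paddy conditions, species grew in furrows within pots of sterilized sandy loam soil (115 cm^2 surface area), and efficacy was judged by eye as percent control, with 0 meaning no herbicidal effect and 100 meaning total kill.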

MOOVA = conditions: for pest or weed control at 2 g/ha: 0.002 kg/ha; for pest or weed control at 8 g/ha: 0.008 kg/ha; for pest or weed control at 31 g/ha: 0.031 kg/ha; for pest or weed control at 125 g/ha: 0.125 kg/ha; for pest or weed control at 500 g/ha: 0.500 kg/ha
In short: as §1

ECHOR = conditions: for pest or weed control at 2 g/ha: 0.002 kg/ha; for pest or weed control at 8 g/ha: 0.008 kg/ha; for pest or weed control at 31 g/ha: 0.031 kg/ha; for pest or weed control at 125 g/ha: 0.125 kg/ha; for pest or weed control at 500 g/ha: 0.500 kg/ha
In short: as §1

ORYSA = conditions: for plant injury at 2 g/ha: 0.002 kg/ha; for plant injury at 8 g/ha: 0.008 kg/ha; for plant injury at 31 g/ha: 0.031 kg/ha; for plant injury at 125 g/ha: 0.125 kg/ha; for plant injury at 500 g/ha: 0.500 kg/ha
In short: as §1

SCPJU = conditions: for pest or weed control at 2 g/ha: 0.002 kg/ha; for pest or weed control at 8 g/ha: 0.008 kg/ha; for pest or weed control at 31 g/ha: 0.031 kg/ha; for pest or weed control at 125 g/ha: 0.125 kg/ha; for pest or weed control at 500 g/ha: 0.500 kg/ha
In short: as §1

[1] = 3 Leaf, read-out: Herbicidal activity, ORYSA (3 Leaf)
[2] = seed, read-out: Herbicidal activity, ORYSA (seed)

## CCC(=NOC)C1=C(O)CC(c2c(C)c3c(c(C)c2Cl)CC(C)(C)C3)CC1=O (stereo not drawn) [Compound 21]
SAGPY
  pest or weed control at 2 g/ha: 0%
  pest or weed control at 8 g/ha: 0%
  pest or weed control at 31 g/ha: 0%
  pest or weed control at 125 g/ha: 0%
  pest or weed control at 500 g/ha: 0%
MOOVA
  pest or weed control at 2 g/ha: 0%
  pest or weed control at 8 g/ha: 30%
  pest or weed control at 31 g/ha: 50%
  pest or weed control at 125 g/ha: 60%
  pest or weed control at 500 g/ha: 70%
ECHOR
  pest or weed control at 2 g/ha: 40%
  pest or weed control at 8 g/ha: 95%
  pest or weed control at 31 g/ha: 100%
  pest or weed control at 125 g/ha: 100%
  pest or weed control at 500 g/ha: 100%
ORYSA; [1]
  plant injury at 2 g/ha: 0%
  plant injury at 8 g/ha: 0%
  plant injury at 31 g/ha: 0%
  plant injury at 125 g/ha: 80%
  plant injury at 500 g/ha: 100%
ORYSA; [2]
  plant injury at 2 g/ha: 20%
  plant injury at 8 g/ha: 100%
  plant injury at 31 g/ha: 100%
  plant injury at 125 g/ha: 100%
  plant injury at 500 g/ha: 100%
SCPJU
  pest or weed control at 2 g/ha: 0%
  pest or weed control at 8 g/ha: 0%
  pest or weed control at 31 g/ha: 0%
  pest or weed control at 125 g/ha: 0%
  pest or weed control at 500 g/ha: 0%

## CCON=C(CC)C1=C(O)CC(c2c(C)c3c(c(C)c2Cl)CC(C)(C)C3)CC1=O (stereo not drawn) [Compound 22]
SAGPY
  pest or weed control at 2 g/ha: 0%
  pest or weed control at 8 g/ha: 0%
  pest or weed control at 31 g/ha: 0%
  pest or weed control at 125 g/ha: 0%
  pest or weed control at 500 g/ha: 0%
MOOVA
  pest or weed control at 2 g/ha: 0%
  pest or weed control at 8 g/ha: 0%
  pest or weed control at 31 g/ha: 0%
  pest or weed control at 125 g/ha: 0%
  pest or weed control at 500 g/ha: 60%
ECHOR
  pest or weed control at 2 g/ha: 0%
  pest or weed control at 8 g/ha: 95%
  pest or weed control at 31 g/ha: 100%
  pest or weed control at 125 g/ha: 100%
  pest or weed control at 500 g/ha: 100%
ORYSA; [1]
  plant injury at 2 g/ha: 0%
  plant injury at 8 g/ha: 0%
  plant injury at 31 g/ha: 0%
  plant injury at 125 g/ha: 20%
  plant injury at 500 g/ha: 100%
ORYSA; [2]
  plant injury at 2 g/ha: 0%
  plant injury at 8 g/ha: 0%
  plant injury at 31 g/ha: 100%
  plant injury at 125 g/ha: 100%
  plant injury at 500 g/ha: 100%
SCPJU
  pest or weed control at 2 g/ha: 0%
  pest or weed control at 8 g/ha: 0%
  pest or weed control at 31 g/ha: 0%
  pest or weed control at 125 g/ha: 0%
  pest or weed control at 500 g/ha: 0%

## C=CCON=C(CCC)C1=C(O)CC(c2c(C)c3c(c(C)c2Cl)CC(C)(C)C3)CC1=O (stereo not drawn) [Compound 27]
SAGPY
  pest or weed control at 2 g/ha: 0%
  pest or weed control at 8 g/ha: 0%
  pest or weed control at 31 g/ha: 0%
  pest or weed control at 125 g/ha: 0%
  pest or weed control at 500 g/ha: 0%
MOOVA
  pest or weed control at 2 g/ha: 0%
  pest or weed control at 8 g/ha: 0%
  pest or weed control at 31 g/ha: 0%
  pest or weed control at 125 g/ha: 0%
  pest or weed control at 500 g/ha: 0%
ECHOR
  pest or weed control at 2 g/ha: 0%
  pest or weed control at 8 g/ha: 0%
  pest or weed control at 31 g/ha: 50%
  pest or weed control at 125 g/ha: 100%
  pest or weed control at 500 g/ha: 100%
ORYSA; [1]
  plant injury at 2 g/ha: 0%
  plant injury at 8 g/ha: 0%
  plant injury at 31 g/ha: 0%
  plant injury at 125 g/ha: 0%
  plant injury at 500 g/ha: 0%
ORYSA; [2]
  plant injury at 2 g/ha: 0%
  plant injury at 8 g/ha: 0%
  plant injury at 31 g/ha: 0%
  plant injury at 125 g/ha: 100%
  plant injury at 500 g/ha: 100%
SCPJU
  pest or weed control at 2 g/ha: 0%
  pest or weed control at 8 g/ha: 0%
  pest or weed control at 31 g/ha: 0%
  pest or weed control at 125 g/ha: 0%
  pest or weed control at 500 g/ha: 0%

## C=C(Cl)CON=C(CC)C1=C(O)CC(c2c(C)c(C)c3c(c2C)CC(C)(CC)C3)CC1=O (stereo not drawn) [Compound 15]
SAGPY
  pest or weed control at 2 g/ha: 0%
  pest or weed control at 8 g/ha: 0%
  pest or weed control at 31 g/ha: 0%
  pest or weed control at 125 g/ha: 0%
  pest or weed control at 500 g/ha: 0%
MOOVA
  pest or weed control at 2 g/ha: 0%
  pest or weed control at 8 g/ha: 0%
  pest or weed control at 31 g/ha: 0%
  pest or weed control at 125 g/ha: 0%
  pest or weed control at 500 g/ha: 30%
ECHOR
  pest or weed control at 2 g/ha: 0%
  pest or weed control at 8 g/ha: 30%
  pest or weed control at 31 g/ha: 30%
  pest or weed control at 125 g/ha: 100%
  pest or weed control at 500 g/ha: 100%
ORYSA; [1]
  plant injury at 2 g/ha: 0%
  plant injury at 8 g/ha: 0%
  plant injury at 31 g/ha: 0%
  plant injury at 125 g/ha: 0%
  plant injury at 500 g/ha: 30%
ORYSA; [2]
  plant injury at 2 g/ha: 0%
  plant injury at 8 g/ha: 0%
  plant injury at 31 g/ha: 0%
  plant injury at 125 g/ha: 40%
  plant injury at 500 g/ha: 100%
SCPJU
  pest or weed control at 2 g/ha: 0%
  pest or weed control at 8 g/ha: 0%
  pest or weed control at 31 g/ha: 0%
  pest or weed control at 125 g/ha: 0%
  pest or weed control at 500 g/ha: 0%

## CCON=C(CC)C1=C(O)CC(c2c(C)c(C)c3c(c2Cl)CC(C)(C)C3)CC1=O (stereo not drawn) [Compound 39]
SAGPY
  pest or weed control at 2 g/ha: 0%
  pest or weed control at 8 g/ha: 0%
  pest or weed control at 31 g/ha: 0%
  pest or weed control at 125 g/ha: 0%
  pest or weed control at 500 g/ha: 0%
MOOVA
  pest or weed control at 2 g/ha: 0%
  pest or weed control at 8 g/ha: 0%
  pest or weed control at 31 g/ha: 0%
  pest or weed control at 125 g/ha: 0%
  pest or weed control at 500 g/ha: 0%
ECHOR
  pest or weed control at 2 g/ha: 0%
  pest or weed control at 8 g/ha: 80%
  pest or weed control at 31 g/ha: 100%
  pest or weed control at 125 g/ha: 100%
  pest or weed control at 500 g/ha: 100%
ORYSA; [1]
  plant injury at 2 g/ha: 0%
  plant injury at 8 g/ha: 0%
  plant injury at 31 g/ha: 0%
  plant injury at 125 g/ha: 0%
  plant injury at 500 g/ha: 80%
ORYSA; [2]
  plant injury at 2 g/ha: 0%
  plant injury at 8 g/ha: 0%
  plant injury at 31 g/ha: 100%
  plant injury at 125 g/ha: 100%
  plant injury at 500 g/ha: 100%
SCPJU
  pest or weed control at 2 g/ha: 0%
  pest or weed control at 8 g/ha: 0%
  pest or weed control at 31 g/ha: 0%
  pest or weed control at 125 g/ha: 0%
  pest or weed control at 500 g/ha: 0%
